Earlier results, collected in paper PMC9516332 (Frontiers in Oncology, 2022).
Read-outs that look alike come from different tables or passages of the source.

Columns and labels:
[1] = target: panel of 255 wild-type kinases (Homo sapiens, UniProt P06239); settings: kinase LCK, 1 µmol/L single concentration, cited from earlier work
[2] = target: T1, panel of 255 wild-type kinases (Homo sapiens, UniProt P29322); settings: kinase EPHA8, 1 µmol/L single concentration, cited from earlier work
T1 sequence (P29322 28-1005): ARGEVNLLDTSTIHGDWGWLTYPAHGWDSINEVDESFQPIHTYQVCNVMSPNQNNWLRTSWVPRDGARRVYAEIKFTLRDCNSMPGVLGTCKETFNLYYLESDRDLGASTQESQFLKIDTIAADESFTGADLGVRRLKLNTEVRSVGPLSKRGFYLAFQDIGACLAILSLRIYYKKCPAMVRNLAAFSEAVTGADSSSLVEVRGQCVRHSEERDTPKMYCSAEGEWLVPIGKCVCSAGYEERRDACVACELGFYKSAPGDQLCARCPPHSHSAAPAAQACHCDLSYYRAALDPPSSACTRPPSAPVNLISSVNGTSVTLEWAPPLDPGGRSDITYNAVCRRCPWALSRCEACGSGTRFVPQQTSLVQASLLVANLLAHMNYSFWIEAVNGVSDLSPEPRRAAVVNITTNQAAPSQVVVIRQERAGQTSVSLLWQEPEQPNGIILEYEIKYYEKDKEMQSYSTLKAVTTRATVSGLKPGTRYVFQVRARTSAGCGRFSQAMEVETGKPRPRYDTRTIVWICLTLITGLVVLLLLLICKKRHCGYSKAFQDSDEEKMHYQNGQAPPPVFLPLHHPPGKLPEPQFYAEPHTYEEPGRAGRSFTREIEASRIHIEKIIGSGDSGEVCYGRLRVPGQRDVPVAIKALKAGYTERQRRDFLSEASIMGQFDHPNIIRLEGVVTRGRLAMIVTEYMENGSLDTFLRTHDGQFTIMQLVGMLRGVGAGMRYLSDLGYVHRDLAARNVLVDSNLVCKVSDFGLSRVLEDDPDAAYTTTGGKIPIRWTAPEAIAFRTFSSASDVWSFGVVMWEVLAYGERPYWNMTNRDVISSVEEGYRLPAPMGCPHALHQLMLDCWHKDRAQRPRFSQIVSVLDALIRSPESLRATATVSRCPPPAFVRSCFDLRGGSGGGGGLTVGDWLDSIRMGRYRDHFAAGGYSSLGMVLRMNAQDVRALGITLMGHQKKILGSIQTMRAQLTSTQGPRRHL

[3] = target: panel of 255 wild-type kinases (Homo sapiens, UniProt P35916); settings: kinase FLT4, 1 µmol/L single concentration, cited from earlier work
[4] = target: panel of 255 wild-type kinases (Homo sapiens, UniProt Q02763); settings: kinase TIE2, 1 µmol/L single concentration, cited from earlier work
[5] = target: panel of 255 wild-type kinases (Homo sapiens, UniProt Q07912); settings: ACK kinase assay, 1 µmol/L single concentration, cited from earlier work
[6] = target: T2, panel of 255 wild-type kinases (Homo sapiens, UniProt Q14164); settings: kinase IKKε, 1 µmol/L single concentration, cited from earlier work
T2 sequence (Q14164 1-716): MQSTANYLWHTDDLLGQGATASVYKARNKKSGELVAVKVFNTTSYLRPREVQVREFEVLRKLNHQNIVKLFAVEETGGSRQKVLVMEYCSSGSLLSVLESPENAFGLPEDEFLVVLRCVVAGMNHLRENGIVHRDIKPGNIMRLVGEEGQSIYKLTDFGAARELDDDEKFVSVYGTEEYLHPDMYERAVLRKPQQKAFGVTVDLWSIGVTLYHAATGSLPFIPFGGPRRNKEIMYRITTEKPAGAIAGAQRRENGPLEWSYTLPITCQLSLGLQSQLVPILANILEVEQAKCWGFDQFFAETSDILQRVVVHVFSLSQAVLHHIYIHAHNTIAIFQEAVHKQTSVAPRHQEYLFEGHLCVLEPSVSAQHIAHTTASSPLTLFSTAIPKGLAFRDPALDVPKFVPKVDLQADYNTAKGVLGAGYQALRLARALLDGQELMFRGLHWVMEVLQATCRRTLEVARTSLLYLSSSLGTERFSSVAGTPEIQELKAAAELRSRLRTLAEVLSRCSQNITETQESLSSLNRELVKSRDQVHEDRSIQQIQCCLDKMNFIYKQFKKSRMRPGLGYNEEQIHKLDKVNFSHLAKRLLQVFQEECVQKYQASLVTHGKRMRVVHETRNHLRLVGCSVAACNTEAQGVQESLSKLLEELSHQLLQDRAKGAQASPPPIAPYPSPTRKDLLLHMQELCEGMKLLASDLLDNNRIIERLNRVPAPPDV

[7] = target: panel of 255 wild-type kinases (Homo sapiens, UniProt Q15759); settings: p38β, 1 µmol/L single concentration, cited from earlier work
[8] = target: T3, panel of 255 wild-type kinases (Homo sapiens, UniProt Q96BR1); settings: kinase SGK3, 1 µmol/L single concentration, cited from earlier work
T3 sequence (Q96BR1 1-496): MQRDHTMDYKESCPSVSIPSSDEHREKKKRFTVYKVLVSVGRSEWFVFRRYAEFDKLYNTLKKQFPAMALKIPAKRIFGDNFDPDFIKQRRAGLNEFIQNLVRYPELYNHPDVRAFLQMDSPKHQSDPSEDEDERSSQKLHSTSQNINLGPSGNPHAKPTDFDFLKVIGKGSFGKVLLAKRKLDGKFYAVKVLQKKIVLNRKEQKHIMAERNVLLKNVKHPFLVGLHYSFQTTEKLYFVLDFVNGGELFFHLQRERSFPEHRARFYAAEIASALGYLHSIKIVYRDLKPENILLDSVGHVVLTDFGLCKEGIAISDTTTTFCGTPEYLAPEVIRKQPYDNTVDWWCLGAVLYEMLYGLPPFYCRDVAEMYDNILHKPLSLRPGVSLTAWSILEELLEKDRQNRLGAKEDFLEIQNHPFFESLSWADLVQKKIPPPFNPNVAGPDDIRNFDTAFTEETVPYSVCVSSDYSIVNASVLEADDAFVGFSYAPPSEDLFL

[9] = ref DOI: 10.1158/1535-7163.MCT-18-0877
[10] = ref DOI: 10.1371/journal.pone.0092146

Structure (SMILES) | %-inhibition at 1 µmol/L, LCK [1, 9] | %-inhibition at 1 µmol/L, EPHA8 [2, 9] | %-inhibition at 1 µmol/L, FLT4 [3, 9] | %-inhibition at 1 µmol/L, TIE2 [4, 9] | %-inhibition ACK [5, 9] | %-inhibition at 1 µmol/L, IKKε [6, 9] | %-inhibition, p38β [7, 9] | %-inhibition at 1 µmol/L, SGK3 [8, 9] | %-inhibition at 1 µmol/L, LCK [1, 10] | %-inhibition at 1 µmol/L, EPHA8 [2, 10] | %-inhibition at 1 µmol/L, FLT4 [3, 10] | %-inhibition at 1 µmol/L, TIE2 [4, 10] | %-inhibition ACK [5, 10] | %-inhibition at 1 µmol/L, IKKε [6, 10] | %-inhibition, p38β [7, 10] | %-inhibition at 1 µmol/L, SGK3 [8, 10]
C=CC(=O)N1CCC[C@@H](n2nc(-c3ccc(Oc4ccccc4)cc3)c3c(N)ncnc32)C1 [ibrutinib] | 100% | 55% | 91% | 29% | 73% | -0.696% | 9% | 0.579% |  |  |  |  |  |  |  | 
CC(=O)Nc1cccc(-n2c(=O)n(C3CC3)c(=O)c3c(Nc4ccc(I)cc4F)n(C)c(=O)c(C)c32)c1 [trametinib] |  |  |  |  |  |  |  |  | -7% | -8% | 1.51% | -7% | -5.39% | -3.63% | 2.31% | 0.769%
Cc1cc(Nc2ncc(Cl)c(Nc3ccccc3S(=O)(=O)C(C)C)n2)c(OC(C)C)cc1C1CCNCC1 [ceritinib] | 6% | 6% | 75% | -13% | 103% | 6.42% | 2.35% | -0.738% |  |  |  |  |  |  |  | 
C[C@@H](Oc1cc(-c2cnn(C3CCNCC3)c2)cnc1N)c1c(Cl)ccc(F)c1Cl [crizotinib] |  |  |  |  |  |  |  |  | 98% | 82% | 48% | 83% | 56% | 7.49% | 0.299% | -3%
C=CC(=O)Nc1cc(Nc2nccc(-c3cn(C)c4ccccc34)n2)c(OC)cc1N(C)CCN(C)C [osimertinib] | 3.62% | -8% | 40% | 3.73% | 100% | 8% | 4.56% | 3.6% |  |  |  |  |  |  |  | 
CCCS(=O)(=O)Nc1ccc(F)c(C(=O)c2c[nH]c3ncc(-c4ccc(Cl)cc4)cc23)c1F [vemurafenib] |  |  |  |  |  |  |  |  | 81% | 7% | 24% | -2.42% | 40% | -9% | 24% | -2.38%
O=C(c1ccc(F)c(F)c1Nc1ccc(I)cc1F)N1CC(O)([C@@H]2CCCCN2)C1 [cobimetinib] | -3% | -5.33% | -6% | 19% | 7% | -3.35% | 4% | -4% |  |  |  |  |  |  |  | 
CC(C)(C)c1nc(-c2cccc(NS(=O)(=O)c3c(F)cccc3F)c2F)c(-c2ccnc(N)n2)s1 [dabrafenib] |  |  |  |  |  |  |  |  | 83% | 35% | 85% | 81% | 24% | 15% | 5.3% | 0.0854%
CO[C@@H]1[C@H](N(C)C(=O)c2ccccc2)C[C@H]2O[C@]1(C)n1c3ccccc3c3c4c(c5c6ccccc6n2c5c31)C(=O)NC4 [midostaurin] | 91% | 6.51% | 99% | 30% | 102% | 97% | 1.19% | 16% |  |  |  |  |  |  |  | 
